Laboratory results published in US12077503B2, “Substituted cyclic amides and their use as herbicides” (FMC CORPORATION, priority 2015, dated 2024).

Tests used:
Type in all cases: in vivo
[1] = system: ivy-leaved morning glory (Ipomoea hederacea); test: Test G Pre-Emergence Protocol; details: Ipomoea, pre-emergence, 312 h, evaluated after 13 days
Summary of the method: (§1)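 Glasshouse pre-emergence test: soil-sown seeds, sprayed after 1 d at 15.625, 62.5 or 250 g/ha. Conditions 24/16° C day/night, 14 h light, 65% humidity, watering twice daily. Rating 13 d post-spray (100 = total damage).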

[2] = system: barnyardgrass (Echinochloa crus-galli); test: Test G Pre-Emergence Protocol; details: Echinochloa crus-galli, pre-emergence, 312 h, evaluated after 13 days
Summary of the method: as §1

[3] = system: giant foxtail (Setaria faberi); test: Test G Pre-Emergence Protocol; details: Setaria faberi, pre-emergence, 312 h, evaluated after 13 days
Summary of the method: as §1

corn (Zea mays) [4] = test: Test G Pre-Emergence Protocol; details: Zea mays, pre-emergence, 312 h, evaluated after 13 days
Summary of the method: as §1

[5] = system: redroot pigweed (Amaranthus retroflexus); test: Test G Pre-Emergence Protocol; details: Amaranthus retroflexus, pre-emergence, 312 h, evaluated after 13 days
Summary of the method: as §1

[6] = system: velvetleaf (Abutilon theophrasti); test: Test G Pre-Emergence Protocol; details: Abutilon theophrasti, pre-emergence, 312 h, evaluated after 13 days
Summary of the method: as §1

[7] = system: ivy-leaved morning glory (Ipomoea hederacea); test: Test G Post-Emergence Protocol; details: Ipomoea, post-emergence, 312 h
Summary of the method: (§2)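 Seedlings grown 8 days in soil in a glasshouse (24/16 °C day/night, 14 h light, 65% humidity) were sprayed post-emergence with compound in acetone/water 50:50 plus 0.5% Tween 20 at 15.625, 62.5 or 250 g/ha. Damage was scored after 13 days on a 0–100 scale (100 = total damage).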

[8] = system: barnyardgrass (Echinochloa crus-galli); test: Test G Post-Emergence Protocol; details: Echinochloa crus-galli, post-emergence, 312 h
Summary of the method: as §2

[9] = system: giant foxtail (Setaria faberi); test: Test G Post-Emergence Protocol; details: Setaria faberi, post-emergence, 312 h
Summary of the method: as §2

corn (Zea mays) [10] = test: Test G Post-Emergence Protocol; details: Zea mays, post-emergence, 312 h
Summary of the method: as §2

[11] = system: redroot pigweed (Amaranthus retroflexus); test: Test G Post-Emergence Protocol; details: Amaranthus retroflexus, post-emergence, 312 h
Summary of the method: as §2

[12] = system: velvetleaf (Abutilon theophrasti); test: Test G Post-Emergence Protocol; details: Abutilon theophrasti, post-emergence, 312 h
Summary of the method: as §2

Compound `CN1C[C@@H](c2ccc(C(F)(F)F)cc2)[C@H](C(=O)Nc2cnnc(Cl)c2Cl)C1=O` (racemic) [Compound 1567] has a pest or weed control at 15.625 g/ha ([1]; 15.625 g ai/ha, read-out: Morning-glory, Ivy-leaved damage rating (100=total damage to plant; 0=no damage to plant)) of 0%, a pest or weed control at 62.5 g/ha ([1]; 62.5 g ai/ha, 100=total damage to plant, 0=no damage to plant, read-out: plant damage rating, Morningglory, Ivy-leaved) of 0% and a pest or weed control at 250 g/ha ([1]; 250 g ai/ha, read-out: Morningglory, Ivy-leaved damage rating (100=total damage to plant; 0=no damage to plant)) of 0%. For the same compound, the pest or weed control at 15.625 g/ha ([2]; 15.625 g ai/ha, read-out: Barnyard grass damage rating (100=total damage to plant; 0=no damage to plant)) was 0%, the pest or weed control at 62.5 g/ha ([2]; 62.5 g ai/ha, 100=total damage to plant, 0=no damage to plant, read-out: plant damage rating, Barnyardgrass) was 0% and the pest or weed control at 250 g/ha ([2]; 250 g ai/ha, read-out: Barnyardgrass damage rating (100=total damage to plant; 0=no damage to plant)) was 0%. The pest or weed control at 15.625 g/ha ([3]; 15.625 g ai/ha, read-out: Foxtail, Giant damage rating (100=total damage to plant; 0=no damage to plant)) was 0%, the pest or weed control at 62.5 g/ha ([3]; 62.5 g ai/ha, 100=total damage to plant, 0=no damage to plant, read-out: plant damage rating, Foxtail, Giant) was 0% and the pest or weed control at 250 g/ha ([3]; 250 g ai/ha, read-out: Foxtail, Giant damage rating (100=total damage to plant; 0=no damage to plant)) was 0%. For the same compound, the plant injury at 15.625 g/ha (corn (Zea mays) [4]; 15.625 g ai/ha, read-out: Corn damage rating (100=total damage to plant; 0=no damage to plant)) was 0%, the plant injury at 62.5 g/ha (corn (Zea mays) [4]; 62.5 g ai/ha, 100=total damage to plant, 0=no damage to plant, read-out: plant damage rating, Corn) was 0% and the plant injury at 250 g/ha (corn (Zea mays) [4]; 250 g ai/ha, read-out: Corn damage rating (100=total damage to plant; 0=no damage to plant)) was 0%. It also gave a pest or weed control at 15.625 g/ha ([5]; 15.625 g ai/ha, read-out: Pigweed, Redroot damage rating (100=total damage to plant; 0=no damage to plant)) of 0%, a pest or weed control at 62.5 g/ha ([5]; 62.5 g ai/ha, 100=total damage to plant, 0=no damage to plant, read-out: plant damage rating, Pigweed, Redroot) of 0% and a pest or weed control at 250 g/ha ([5]; 250 g ai/ha, read-out: Pigweed, Redroot damage rating (100=total damage to plant; 0=no damage to plant)) of 0%. It also gave a pest or weed control at 15.625 g/ha ([6]; 15.625 g ai/ha, read-out: Velvetleaf damage rating (100=total damage to plant; 0=no damage to plant)) of 0%, a pest or weed control at 62.5 g/ha ([6]; 62.5 g ai/ha, 100=total damage to plant, 0=no damage to plant, read-out: plant damage rating, Velvetleaf) of 0% and a pest or weed control at 250 g/ha ([6]; 250 g ai/ha, read-out: Velvetleaf damage rating (100=total damage to plant; 0=no damage to plant)) of 0%. The pest or weed control at 15.625 g/ha ([7]; 15.625 g ai/ha, evaluated after 13 days (100=total damage to plant; 0=no damage to plant), read-out: Morningglory, Ivy-leaved damage rating) was 0%, the pest or weed control at 62.5 g/ha ([7]; 62.5 g ai/ha, evaluated after 13 days, read-out: Morningglory, Ivy-leaved damage rating (100=total damage to plant; 0=no damage to plant)) was 0% and the pest or weed control at 250 g/ha ([7]; 250 g ai/ha, evaluated after 13 days, read-out: damage to plant, Morningglory, Ivy-leaved (100=total damage to plant; 0=no damage to plant)) was 0%. It also gave a pest or weed control at 15.625 g/ha ([8]; 15.625 g ai/ha, evaluated after 13 days (100=total damage to plant; 0=no damage to plant), read-out: Barnyardgrass damage rating) of 0%, a pest or weed control at 62.5 g/ha ([8]; 62.5 g ai/ha, evaluated after 13 days, read-out: Barnyardgrass damage rating (100=total damage to plant; 0=no damage to plant)) of 0% and a pest or weed control at 250 g/ha ([8]; 250 g ai/ha, evaluated after 13 days, read-out: damage to plant, Barnyardgrass (100=total damage to plant; 0=no damage to plant)) of 10%. For the same compound, the pest or weed control at 15.625 g/ha ([9]; 15.625 g ai/ha, evaluated after 13 days (100=total damage to plant; 0=no damage to plant), read-out: Foxtail, Giant damage rating) was 0%, the pest or weed control at 62.5 g/ha ([9]; 62.5 g ai/ha, evaluated after 13 days, read-out: Foxtail, Giant damage rating (100=total damage to plant; 0=no damage to plant)) was 0% and the pest or weed control at 250 g/ha ([9]; 250 g ai/ha, evaluated after 13 days, read-out: damage to plant, Foxtail, Giant (100=total damage to plant; 0=no damage to plant)) was 0%. The plant injury at 15.625 g/ha (corn (Zea mays) [10]; 15.625 g ai/ha, evaluated after 13 days (100=total damage to plant; 0=no damage to plant), read-out: Corn damage rating) was 0%, the plant injury at 62.5 g/ha (corn (Zea mays) [10]; 62.5 g ai/ha, evaluated after 13 days, read-out: Corn damage rating (100=total damage to plant; 0=no damage to plant)) was 0% and the plant injury at 250 g/ha (corn (Zea mays) [10]; 250 g ai/ha, evaluated after 13 days, read-out: damage to plant, Corn (100=total damage to plant; 0=no damage to plant)) was 0%. It also gave a pest or weed control at 15.625 g/ha ([11]; 15.625 g ai/ha, evaluated after 13 days (100=total damage to plant; 0=no damage to plant), read-out: Pigweed, Redroot damage rating) of 0%, a pest or weed control at 62.5 g/ha ([11]; 62.5 g ai/ha, evaluated after 13 days, read-out: Pigweed, Redroot damage rating (100=total damage to plant; 0=no damage to plant)) of 0% and a pest or weed control at 250 g/ha ([11]; 250 g ai/ha, evaluated after 13 days, read-out: damage to plant, Pigweed, Redroot (100=total damage to plant; 0=no damage to plant)) of 0%. It also gave a pest or weed control at 15.625 g/ha ([12]; 15.625 g ai/ha, evaluated after 13 days (100=total damage to plant; 0=no damage to plant), read-out: Velvetleaf damage rating) of 0%, a pest or weed control at 62.5 g/ha ([12]; 62.5 g ai/ha, evaluated after 13 days, read-out: Velvetleaf damage rating (100=total damage to plant; 0=no damage to plant)) of 0% and a pest or weed control at 250 g/ha ([12]; 250 g ai/ha, evaluated after 13 days, read-out: damage to plant, Velvetleaf (100=total damage to plant; 0=no damage to plant)) of 0%.
